# Results published in patent US6951881B2, “(1-substituted-indol-3-yl) alkylidenehydrazinecarboximidamide derivatives as 5-hydroxytryptamine-6 ligands” (Wyeth, priority 2002, dated 2005).
# Target: T1, human cloned 5-HT6 receptors (Homo sapiens, UniProt P50406)
# T1 construct: expressed in transfected cells; host or cells: HeLa cells
# Assay type: binding
# Conditions: not given
# Description: This operation is repeated.
# The reaction is allowed to proceed in the dark for 120 min at room temperature, at which time, the bound ligand-receptor complex is filtered off on a 96 well unifilter with a Packard Filtermate® 196 Harvester. The bound complex caught on the filter disk is allowed to air dry and the radioactivity is measured in a Packard TopCount® equipped with six photomultiplier detectors, after the addition of 40.0 μl Microscint®-20 scintillant to each shallow well. The unifilter plate is heat-sealed and counted in a PackardTopCount® with a tritium efficiency of 31.0%.
# Specific binding to the 5-HT6 receptor is defined as the total radioactivity bound less the amount bound in the presence of 10.0 μM unlabeled methiothepin. Binding in the presence of varying concentrations of test compound is expressed as a percentage of specific binding in the absence of test compound. The results are plotted as logit % bound versus log concentration of test compound. Nonlinear regression analysis of data points with a computer assisted program Prism® yields both the IC50 and the Ki values of test compounds with 95% confidence limits.
# The amount of displacement by the test compound is given in percent (%) inhibition and is derived from the following equation: [formula] where B0 is the amount of CPM bound in the presence of the testing agent. NSB represents the CPM bound in the presence of a saturating concentration of a displacer and TB represents the total amount of CPM bound at zero (0) concentration of test compound.
# Alternatively, a linear regression line of decline of data points is plotted, from which the IC50 value can be read off and the Ki value determined by solving the following equation: [formula] where L is the concentration of the radioactive ligand used and KD is the dissociation constant of the ligand for the receptor, both expressed in nM.
# T1 sequence (P50406 whole entry): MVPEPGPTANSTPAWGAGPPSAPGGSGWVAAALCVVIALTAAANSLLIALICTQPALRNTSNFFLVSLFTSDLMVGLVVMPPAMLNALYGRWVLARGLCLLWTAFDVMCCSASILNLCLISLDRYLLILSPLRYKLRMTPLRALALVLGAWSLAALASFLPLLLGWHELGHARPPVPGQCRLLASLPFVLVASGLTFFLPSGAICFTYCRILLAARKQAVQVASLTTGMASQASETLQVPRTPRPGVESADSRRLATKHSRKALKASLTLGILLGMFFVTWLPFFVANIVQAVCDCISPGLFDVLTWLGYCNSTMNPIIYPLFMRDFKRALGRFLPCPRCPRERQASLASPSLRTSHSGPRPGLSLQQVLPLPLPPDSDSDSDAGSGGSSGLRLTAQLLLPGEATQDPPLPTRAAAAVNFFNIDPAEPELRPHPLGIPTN
row,Compound,inhibition at 0.1 µM [%]
1,"C/C(=N\NC(=N)N)c1c(-c2ccc(Cl)cc2Cl)[nH]c2ccc(Cl)cc12 [Example 127, 2-{[5-Chloro-2-(2,4-dichlorophenyl)-1H-indol-3-yl]ethylidene}hydrazinecarboximidamide]",50.6
2,"C/C(=N\NC(=N)N)c1c(-c2ccc(Cl)cc2Cl)n(C)c2ccc(Cl)cc12 [Example 128, 2-{[5-Chloro-2-(2,4-dichlorophenyl)-1-methyl-1H-indol-3-yl]ethylidene}hydrazinecarboximidamide]",57.3

# Same assay, conditions: [3H]-LSD 3.0 nM, Hela cell membranes; read-out: 5-HT6 Binding Ki
row,Compound,Ki [nM]
1,"COc1ccc2[nH]c3c(c2c1)C(=NNC(=N)N)CCC3 [Example 162, N′-(6-methoxy-1,2,3,9-tetrahydro-4H-carbazol-4-ylidene)carbonohydrazonic diamide]",4.7

# Same assay, conditions: test compound dose 10 nM; displacement of [3H]-LSD
row,inhibition at 0.01 µM [%],Compound
1,61.1,"N=C(N)NN=C1CCCc2[nH]c3ccc(Br)cc3c21 [Example 159, 2-(6-bromo-1,2,3,9-tetrahydro-4H-carbazol-4-ylidene)hydrazinecarboximidamide]"
2,39.5,"N=C(N)NN=C1CCCc2[nH]c3ccccc3c21 [Example 161, 2-(1,2,3,9-tetrahydro-4H-carbazol-4-ylidene)hydrazinecarboximidamide]"

# Same assay, conditions: test compound dose 100 nM; displacement of [3H]-LSD
row,Compound,% Inhibition [%]
1,"CC(=NNC(=N)N)c1c(-c2ccc(-c3ccccc3)cc2)[nH]c2ccc(Cl)cc12 [Example 141, 2-[(2-biphenyl-5-chloro-1H-indol-3-yl)-ethylidene]hydrazinecarboximidamide]",33.6
2,"CC(=NNC(=N)N)c1c(-c2ccc(-c3ccccc3)cc2)n(C)c2ccc(Cl)cc12 [Example 143, 2-[(2-biphenyl-5-chloro-1-methyl-1H-indol-3-yl)-ethylidene]hydrazinecarboximidamide]",34.6

# Same assay, conditions: test compound dose 100 nM; displacement of [3H]-LSD; read-out: % Inhibition
row,inhibition at 0.1 µM [%],Compound
1,63.2,"C/C(=N\NC(=N)N)c1c(-c2sccc2C)[nH]c2ccccc12 [Example 133, 2-{[2-(2-(3-methyl-thienyl))-1H-indol-3-yl]-ethylidene}hydrazinecarboximidamide]"
2,46.1,"C/C(=N\NC(=N)N)c1c(-c2sccc2C)n(C)c2ccccc12 [Example 146, 2-{[1-methyl-2-(2-(3-methyl-thienyl))-1H-indol-3-yl]-ethylidene}hydrazinecarboximidamide]"
3,38.5,"Cc1ccc2[nH]c3c(c2c1)C(=NNC(=N)N)CC(C)(C)C3 [Example 163, 2-(2,2,6-trimethyl-1,2,3,9-tetrahydro-4H-carbazol-4-ylidene)hydrazinecarboximidamide]"

# Same assay, conditions: test compound dose 1000 nM; displacement of [3H]-LSD
inhibition at 1 µM [%],Compound,% Inhibition [%]
92,"N#CCCn1c(-c2ccc(Cl)cc2)c(C=NNC(=N)N)c2ccccc21 [Example 108, 2-{[2-(4-chloro-phenyl)-1-(2-cyano-ethyl)-1H-indol-3-yl]-methylene}hydrazinecarboximidamide]",–
–,"CN(N=Cc1c(-c2ccc(Cl)cc2)n(CCC#N)c2ccccc12)C1=NCCN1 [Example 109, N-{[2-(4-chloro-phenyl)-1-(2-cyano-ethyl)-1H-indol-3-yl]-methylene}-N′-(4,5-dihydro-1H-imidazol-2-yl)-N-methylhydrazine]",99.1
–,"N=C(N)NN=Cc1c(-c2ccc(Cl)cc2)n(CCc2ccccc2)c2ccccc12 [Example 110, 2-{[2-(4-chloro-phenyl)-1-(2-phenethyl)-1H-indol-3-yl]-methylene}hydrazinecarboximidamide]",20.9
–,"CN(N=Cc1c(-c2ccc(Cl)cc2)n(CCc2ccccc2)c2ccccc12)C1=NCCN1 [Example 111, N-{[2-(4-chloro-phenyl)-1-(2-phenethyl)-1H-indol-3-yl]-methylene}-N′-(4,5-dihydro-1H-imidazol-2-yl)-N-methylhydrazine]",37.5
–,"C=CCCn1c(-c2ccc(Cl)cc2)c(C=NN(C)C2=NCCN2)c2ccccc21 [Example 112, N-{[1-(3-butenyl)-2-(4-chloro-phenyl)-1H-indol-3-yl]-methylene}-N′-(4,5-dihydro-1H-imidazol-2-yl)-N-methylhydrazine]",85.1
84.1,"N=C(NCCO)NN=Cc1c(-c2ccc(Cl)cc2)[nH]c2ccccc12 [Example 113, 2-{[2-(4-chlorophenyl)-1H-indol-3-yl]methylidene}-N-(2-hydroxyethyl)-1hydrazinecarboximidamide]",–
31.6,"CN=C(NCCO)NN=Cc1c(-c2ccc(Cl)cc2)[nH]c2ccccc12 [Example 114, 2-{[2-(4-chlorophenyl)-1H-indol-3-yl]methylidene}-N-(2-hydroxyethyl)-N′-methyl-1hydrazinecarboximidamide]",–
49.5,"N=C(NN=Cc1c(-c2ccc(Cl)cc2)[nH]c2ccccc12)NC1CCCC1 [Example 115, 2-{[2-(4-chlorophenyl)-1H-indol-3-yl]methylidene}-N-cyclopentyl-1hydrazinecarboximidamide]",–
59.5,"CN=C(NN=Cc1c(-c2ccc(Cl)cc2)[nH]c2ccccc12)NC1CCCC1 [Example 116, 2-{[2-(4-chlorophenyl)-1H-indol-3-yl]methylidene}-N-cyclopentyl-N′-methyl-1hydrazinecarboximidamide]",–
69,"N=C(NCc1ccccc1)NN=Cc1c(-c2ccc(Cl)cc2)[nH]c2ccccc12 [Example 117, 2-{[2-(4-chlorophenyl)-1H-indol-3-yl]methylidene}-N-benzyl-1hydrazinecarboximidamide]",–
56.2,"CN=C(NCc1ccccc1)NN=Cc1c(-c2ccc(Cl)cc2)[nH]c2ccccc12 [Example 118, 2-{[2-(4-chlorophenyl)-1H-indol-3-yl]methylidene}-N-benzyl-N′-methyl-1hydrazinecarboximidamide]",–
86,"CCCNC(=N)NN=Cc1c(-c2ccc(Cl)cc2)[nH]c2ccccc12 [Example 119, 2-{[2-(4-chlorophenyl)-1H-indol-3-yl]methylidene}-N-propyl-1hydrazinecarboximidamide]",–
49.9,"CCCNC(=NC)NN=Cc1c(-c2ccc(Cl)cc2)[nH]c2ccccc12 [Example 120, 2-{[2-(4-chlorophenyl)-1H-indol-3-yl]methylidene}-N′-methyl-N-propyl-1hydrazinecarboximidamide]",–
90.5,"CNC(=N)NN=Cc1c(-c2ccc(Cl)cc2)[nH]c2ccccc12 [Example 121, 2-{[2-(4-chlorophenyl)-1H-indol-3-yl]methylidene}-N-methyl-1hydrazinecarboximidamide]",–
38.4,"CN=C(NC)NN=Cc1c(-c2ccc(Cl)cc2)[nH]c2ccccc12 [Example 122, 2-{[2-(4-chlorophenyl)-1H-indol-3-yl]methylidene}-N,N′-dimethyl-1hydrazinecarboximidamide]",–
70.4,"CCCCCNC(=N)NN=Cc1c(-c2ccc(Cl)cc2)[nH]c2ccccc12 [Example 123, 2-{[2-(4-chlorophenyl)-1H-indol-3-yl]methylidene}-N-pentyl-1hydrazinecarboximidamide]",–
74,"CCCCCNC(=NC)NN=Cc1c(-c2ccc(Cl)cc2)[nH]c2ccccc12 [Example 124, 2-{[2-(4-chlorophenyl)-1H-indol-3-yl]methylidene}-N′-methyl-N-pentyl-1hydrazinecarboximidamide]",–
99.1,"N=C(N)N/N=C1\CCCc2[nH]c3ccc(Cl)cc3c21 [Example 152, 2-(6-Chloro-1,2,3,9-tetrahydro-4H-carbazol-4-ylidene)hydrazine-carboximidamide]",–
97,"Clc1ccc2[nH]c3c(c2c1)C(=NNC1=NCCN1)CCC3 [Example 153, 6-chloro-1,2,3,9-tetrahydro-4H-carbazol-4-one 4,5-dihydro-1H-imidazol-2-ylhydrazone]",–
87.1,"CN(N=C1CCCc2[nH]c3ccc(Cl)cc3c21)C1=NCCN1 [Example 154, 6-chloro-1,2,3,9-tetrahydro-4H-carbazol-4-one 4,5-dihydro-1H-imidazol-2-yl(methyl)hydrazone]",–
98.8,"N=C(N)NN=C1CCCc2[nH]c3ccc(F)cc3c21 [Example 156, 2-(6-fluoro-1,2,3,9-tetrahydro-4H-carbazol-4-ylidene)hydrazinecarboximidamide]",–
96.3,"Fc1ccc2[nH]c3c(c2c1)C(=NNC1=NCCN1)CCC3 [Example 157, 6-fluoro-1,2,3,9-tetrahydro-4H-carbazol-4-one 4,5-dihydro-1H-imidazol-2-ylhydrazone]",–
68.7,"CN(N=C1CCCc2[nH]c3ccc(F)cc3c21)C1=NCCN1 [Example 158, 6-fluoro-1,2,3,9-tetrahydro-4H-carbazol-4-one 4,5-dihydro-1H-imidazol-2-yl(methyl)hydrazone]",–
76,"CN(N=C1CCCc2[nH]c3ccc(Br)cc3c21)C1=NCCN1 [Example 160, 6-bromo-1,2,3,9-tetrahydro-4H-carbazol-4-one 4,5-dihydro-1H-imidazol-2-yl(methyl)hydrazone]",–
–,"COc1ccc2[nH]c3c(c2c1)C(=NNC(=N)N)CCC3 [Example 162, N′-(6-methoxy-1,2,3,9-tetrahydro-4H-carbazol-4-ylidene)carbonohydrazonic diamide]",98
